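96-well plates; 48 h exposure; 5 concentrations. Endpoints by linear interpolation between flanking doses. Not reached: highest tested concentration assigned. GI50 = concentration required for 50% inhibition of growth.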 The source made the active and inactive calls. No stated cut-off is given here; in the data, active = GI50 up to about 1.1 µM and inactive = higher.
Legend:
Assay in all cases: NCI anticancer screen, dose series, 48 h
[1] = test system: 786-0
[2] = test system: A498
[3] = test system: A549
[4] = test system: ACHN
[5] = test system: CAKI-1
[6] = test system: COLO 205
[7] = test system: DLD-1
[8] = test system: DMS-114
[9] = test system: DMS-273
[10] = test system: EKVX
[11] = test system: HCC 2998
[12] = test system: HCT-116
[13] = test system: HCT-15
[14] = test system: HL-60
[15] = test system: HOP-62
[16] = test system: HOP-92
[17] = test system: HT-29
[18] = test system: IGROV-1
[19] = test system: KM-20L2
[20] = test system: LOX IMVI
[21] = test system: LXFL 529
[22] = test system: M14
[23] = test system: M19-MEL
[24] = test system: MOLT-4
[25] = test system: Malme-3M
[26] = test system: NCI-H226
[27] = test system: NCI-H23
[28] = test system: NCI-H460
[29] = test system: NCI-H522
[30] = test system: OVCAR-3
[31] = test system: OVCAR-4
[32] = test system: OVCAR-5
[33] = test system: OVCAR-8
[34] = test system: RPMI-8226
[35] = test system: RXF 393
[36] = test system: RXF 631
[37] = test system: SF-268
[38] = test system: SF-295
[39] = test system: SF-539
[40] = test system: SK-MEL-28
[41] = test system: SK-MEL-2
[42] = test system: SK-MEL-5
[43] = test system: SK-OV-3
[44] = test system: SN12C
[45] = test system: SNB-75
[46] = test system: SNB-78
[47] = test system: SR
[48] = test system: SW-620
[49] = test system: TK-10
[50] = test system: U-251
[51] = test system: UACC-257
[52] = test system: UACC-62
[53] = test system: UO-31
[54] = test system: CCRF-CEM
[55] = test system: K562
[56] = test system: KM12
[57] = test system: SNB-19
[58] = test system: XF498

Measured: GI50

O=[N+]([O-])c1ccc(/C(Cl)=C/c2ccc(/C=C(\Cl)c3ccc([N+](=O)[O-])cc3[N+](=O)[O-])cc2)c([N+](=O)[O-])c1
inactive: [1] > 100 µM | [2] > 100 µM | [3] > 100 µM | [4] > 100 µM | [5] > 100 µM | [6] > 100 µM | [7] > 100 µM | [8] > 100 µM | [9] > 100 µM | [10] > 100 µM | [11] > 100 µM | [12] > 100 µM | [14] 57.4 µM | [15] > 100 µM | [16] > 100 µM | [17] > 100 µM | [18] > 100 µM | [20] > 100 µM | [21] > 100 µM | [22] > 100 µM | [23] > 100 µM | [24] > 100 µM | [25] > 100 µM | [26] > 100 µM | [27] > 100 µM | [28] > 100 µM | [29] > 100 µM | [31] > 100 µM | [32] > 100 µM | [33] > 100 µM | [34] > 100 µM | [35] > 100 µM | [36] > 100 µM | [37] > 100 µM | [38] > 100 µM | [39] > 100 µM | [40] > 100 µM | [41] > 100 µM | [42] > 100 µM | [43] > 100 µM | [44] > 100 µM | [45] > 100 µM | [46] > 100 µM | [47] > 100 µM | [48] > 100 µM | [49] > 100 µM | [50] > 100 µM | [51] > 100 µM | [52] > 100 µM | [53] > 100 µM
> 100 µM: [13]
active: [19] 0.188 µM | [30] 0.729 µM

O=CC1=CCCC2(C1)OCCO2
> 100 µM: [13]
inactive: [1] > 100 µM | [2] > 100 µM | [3] > 100 µM | [5] > 100 µM | [54] > 100 µM | [6] > 100 µM | [7] > 100 µM | [8] > 100 µM | [9] > 100 µM | [10] > 100 µM | [11] > 100 µM | [12] > 100 µM | [14] > 100 µM | [15] > 100 µM | [16] > 100 µM | [17] > 100 µM | [18] > 100 µM | [55] > 100 µM | [56] > 100 µM | [20] > 100 µM | [21] > 100 µM | [22] > 100 µM | [23] > 100 µM | [25] > 100 µM | [27] > 100 µM | [28] > 100 µM | [29] > 100 µM | [30] > 100 µM | [31] > 100 µM | [33] > 100 µM | [34] > 100 µM | [35] > 100 µM | [36] > 100 µM | [37] > 100 µM | [38] > 100 µM | [39] > 100 µM | [40] > 100 µM | [41] > 100 µM | [42] > 100 µM | [43] > 100 µM | [44] > 100 µM | [57] > 100 µM | [45] 4.95 µM | [46] > 100 µM | [48] > 100 µM | [49] > 100 µM | [50] > 100 µM | [51] > 100 µM | [52] > 100 µM | [53] > 100 µM | [58] > 100 µM

COc1cc([C@H]2Oc3c(c(O)cc4oc(-c5ccccc5)cc(=O)c34)O[C@@H]2CO)ccc1O
inactive: [1] 21.9 µM | [2] 67 µM | [5] 63.2 µM | [54] 4.34 µM | [6] 31.8 µM | [7] 16.6 µM | [8] 20 µM | [9] 8.83 µM | [11] 25.6 µM | [12] 21.5 µM | [14] 13.7 µM | [15] > 100 µM | [16] 31.7 µM | [18] 51.8 µM | [55] 21.6 µM | [21] 24.3 µM | [22] 17.5 µM | [23] 24.7 µM | [24] > 10 µM | [25] 24.2 µM | [26] 71.1 µM | [27] 38.5 µM | [28] 5.14 µM | [29] 19.1 µM | [31] 23.8 µM | [34] 7.53 µM | [36] 23.8 µM | [37] 11.7 µM | [39] > 100 µM | [40] 45.8 µM | [41] 22.8 µM | [43] 84.9 µM | [44] 35.9 µM | [45] 28.9 µM | [46] > 100 µM | [47] 8.87 µM | [52] 29.9 µM | [53] 31.9 µM | [58] 25.4 µM
